According to patent publication US7138361B2, “Herbicidal heterocycles” (E. I. du Pont de Nemours and Company, priority 2000, dated 2006):

Experiments:
Assay type in all cases: in vivo
[1] = system: Nightshade; experiment: Test C preemergence
[2] = system: Sunflower; experiment: Test C preemergence; conditions: Rate 125 g/ha; scale 0 to 100, 0 no effect, 100 complete control
[3] = system: Surinam grass (Brachiaria decumbens); experiment: Test C preemergence; conditions: for Plant response rating (0 to 100), Surinam grass: visual evaluation after 12 to 14 days
How it was run: (§1)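 Visual injury scores of 0–100, with 100 meaning complete control, were given relative to controls after 12–14 days in the greenhouse. Treatments used a surfactant-containing non-phytotoxic solvent formulation, sprayed on seeded pots preemergence or on 1–4-leaf plants of 2–18 cm postemergence.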

[4] = system: bermudagrass (Cynodon dactylon); experiment: Test C preemergence; conditions: for Plant response rating (0 to 100 where 0 is no effect and 100 is complete control), Bermudagrass: visual evaluation after 12 to 14 days
How it was run: as §1

[5] = system: cocklebur (Xanthium strumarium); experiment: Test C preemergence; conditions: for Plant response rating (0 to 100), Cocklebur: visual evaluation after 12 to 14 days
How it was run: as §1

[6] = system: common ragweed (Ambrosia elatior); experiment: Test C preemergence
How it was run: as §1

[7] = system: corn (Zea mays); experiment: Test C preemergence; conditions: for Plant response rating (0 to 100), Corn: visual evaluation after 12 to 14 days
How it was run: as §1

[8] = system: crabgrass (Digitaria sanguinalis); experiment: Test C preemergence; conditions: for Plant response rating (0 to 100), Crabgrass: visual evaluation after 12 to 14 days
How it was run: as §1

[9] = system: giant foxtail (Setaria faberii); experiment: Test C preemergence; conditions: for Plant response rating (0 to 100), Foxtail, Giant: visual evaluation after 12 to 14 days
How it was run: as §1

[10] = system: goosegrass (Eleusine indica); experiment: Test C preemergence; conditions: for Plant response rating (0 to 100), Goosegrass: visual evaluation after 12 to 14 days
How it was run: as §1

[11] = system: johnsongrass (Sorghum halepense); experiment: Test C preemergence; conditions: for Plant response rating (0 to 100), Johnsongrass: visual evaluation after 12 to 14 days
How it was run: as §1

[12] = system: kochia (Kochia scoparia); experiment: Test C preemergence; conditions: for Plant response rating (0 to 100), Kochia: visual evaluation after 12 to 14 days
How it was run: as §1

[13] = system: lambsquarters (Chenopodium album); experiment: Test C preemergence
How it was run: as §1

[14] = system: morningglory (Ipomoea hederacea); experiment: Test C preemergence
How it was run: as §1

[15] = system: pigweed (Amaranthus retroflexus); experiment: Test C preemergence
How it was run: as §1

[16] = system: soybean (Glycine max); experiment: Test C preemergence
How it was run: as §1

[17] = system: velvetleaf (Abutilon theophrasti); experiment: Test C preemergence
How it was run: as §1

[18] = system: woolly cupgrass (Eriochloa villosa); experiment: Test C preemergence; conditions: for Plant response rating (0 to 100), Cupgrass, Woolly: visual evaluation after 12 to 14 days
How it was run: as §1

[19] = system: yellow nutsedge (Cyperus esculentus); experiment: Test C preemergence
How it was run: as §1

[20] = system: barnyardgrass (Echinochloa crus-galli); experiment: Test C flooded paddy test; conditions: for Barnyardgrass plant response rating: Flooded Paddy, scale 0 to 100, 0 no effect, 100 complete control; for Plant response rating, Barnyardgrass: flooded paddy test, scale 0 to 100 (0 no effect, 100 complete control)
How it was run: (§2)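 Plants were grown to the 2-leaf stage under flooded paddy conditions and treated. They were then kept in a greenhouse for 12 to 14 days and visually rated against untreated controls on a 0–100 scale, where 0 is no effect and 100 is complete control.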

[21] = system: duck salad (Heteranthera limosa); experiment: Test C flooded paddy test; conditions: for Ducksalad plant response rating: Flooded Paddy, scale 0 to 100, 0 no effect, 100 complete control; for Plant response rating, Ducksalad: flooded paddy test, scale 0 to 100 (0 no effect, 100 complete control)
How it was run: as §2

[22] = system: smallflower flatsedge (Cyperus difformis); experiment: Test C flooded paddy test; conditions: for Flatsedge plant response rating: Flooded Paddy, scale 0 to 100, 0 no effect, 100 complete control; for Plant response rating, Flatsedge: flooded paddy test, scale 0 to 100 (0 no effect, 100 complete control)
How it was run: as §2

[23] = Rate 125 g/ha, scale 0 to 100, 0 no effect, 100 complete control
[24] = preemergence, Rate 62 g/ha, scale 0 to 100
[25] = preemergence, Rate 500 g/ha, visual evaluation after 12 to 14 days
[26] = preemergence, Rate 250 g/ha, scale 0 to 100, 0 no effect, 100 complete control

COc1cccc(N2CCC(n3ccc(C(C)(C)C)n3)C2=O)c1 (stereo not drawn) [Compound 87]
Plant response rating, Nightshade ([1]; Rate 62 g/ha, scale 0 to 100): 0
Plant response rating, Nightshade [1, 23]: 10
Plant response rating, Nightshade ([1]; Rate 250 g/ha, scale 0 to 100, 0 no effect, 100 complete control): 60
Plant response rating, Sunflower [2]: 20
Plant response rating, Surinam grass [3, 23]: 100
Plant response rating, Surinam grass [3, 24]: 40
Plant response rating (0 to 100), Surinam grass ([3]; preemergence, Rate 250 g/ha): 100
Plant response rating (0 to 100), Surinam grass ([3]; preemergence, Rate 500 g/ha): 100
Plant response rating, Bermudagrass [4, 23]: 100
Plant response rating, Bermudagrass [4, 24]: 100
Plant response rating (0 to 100 where 0 is no effect and 100 is complete control), Bermudagrass ([4]; preemergence, Rate 250 g/ha): 100
Plant response rating (0 to 100 where 0 is no effect and 100 is complete control), Bermudagrass ([4]; preemergence, Rate 500 g/ha): 100
Plant response rating, Cocklebur [5, 23]: 0
Plant response rating, Cocklebur [5, 24]: 0
Plant response rating (0 to 100), Cocklebur ([5]; preemergence, Rate 250 g/ha): 0
Plant response rating (0 to 100), Cocklebur ([5]; preemergence, Rate 500 g/ha): 0
Plant response rating, Ragweed, Common [6, 23]: 0
Plant response rating, Ragweed, Common [6, 24]: 0
Plant response rating (0 to 100), Ragweed, Common [6, 25]: 0
Plant response rating, Ragweed, Common [6, 26]: 0
Plant response rating, Corn [7, 23]: 70
Plant response rating, Corn [7, 24]: 40
Plant response rating (0 to 100), Corn ([7]; preemergence, Rate 250 g/ha): 70
Plant response rating (0 to 100), Corn ([7]; preemergence, Rate 500 g/ha): 80
Plant response rating, Crabgrass [8, 23]: 100
Plant response rating, Crabgrass [8, 24]: 100
Plant response rating (0 to 100), Crabgrass ([8]; preemergence, Rate 250 g/ha): 100
Plant response rating (0 to 100), Crabgrass ([8]; preemergence, Rate 500 g/ha): 100
Plant response rating, Foxtail, Giant [9, 23]: 100
Plant response rating, Foxtail, Giant [9, 24]: 30
Plant response rating (0 to 100), Foxtail, Giant ([9]; preemergence, Rate 250 g/ha): 100
Plant response rating (0 to 100), Foxtail, Giant ([9]; preemergence, Rate 500 g/ha): 100
Plant response rating, Goosegrass [10, 23]: 100
Plant response rating, Goosegrass [10, 24]: 100
Plant response rating (0 to 100), Goosegrass ([10]; preemergence, Rate 250 g/ha): 100
Plant response rating (0 to 100), Goosegrass ([10]; preemergence, Rate 500 g/ha): 100
Plant response rating, Johnsongrass [11, 23]: 90
Plant response rating, Johnsongrass [11, 24]: 90
Plant response rating (0 to 100), Johnsongrass ([11]; preemergence, Rate 250 g/ha): 100
Plant response rating (0 to 100), Johnsongrass ([11]; preemergence, Rate 500 g/ha): 100
Plant response rating, Kochia [12, 23]: 100
Plant response rating, Kochia [12, 24]: 100
Plant response rating (0 to 100), Kochia ([12]; preemergence, Rate 250 g/ha): 100
Plant response rating (0 to 100), Kochia ([12]; preemergence, Rate 500 g/ha): 100
Plant response rating, Lambsquarters [13, 23]: 100
Plant response rating, Lambsquarters [13, 24]: 100
Plant response rating (0 to 100), Lambsquarters [13, 25]: 100
Plant response rating, Lambsquarters [13, 26]: 100
Plant response rating, Morningglory [14, 23]: 0
Plant response rating, Morningglory [14, 24]: 0
Plant response rating (0 to 100), Morningglory [14, 25]: 0
Plant response rating, Morningglory [14, 26]: 0
Plant response rating, Pigweed [15, 23]: 0
Plant response rating, Pigweed [15, 24]: 0
Plant response rating (0 to 100), Pigweed [15, 25]: 100
Plant response rating, Pigweed [15, 26]: 100
Plant response rating, Soybean [16, 23]: 20
Plant response rating, Soybean [16, 24]: 0
Plant response rating (0 to 100), Soybean [16, 25]: 30
Plant response rating, Soybean [16, 26]: 20
Plant response rating, Velvetleaf [17, 23]: 10
Plant response rating, Velvetleaf [17, 24]: 10
Plant response rating (0 to 100), Velvetleaf [17, 25]: 20
Plant response rating, Velvetleaf [17, 26]: 10
Plant response rating, Cupgrass, Woolly [18, 23]: 100
Plant response rating, Cupgrass, Woolly [18, 24]: 90
Plant response rating (0 to 100), Cupgrass, Woolly ([18]; preemergence, Rate 250 g/ha): 100
Plant response rating (0 to 100), Cupgrass, Woolly ([18]; preemergence, Rate 500 g/ha): 100
Plant response rating, Nutsedge [19, 23]: 20
Plant response rating, Nutsedge [19, 24]: 20
Plant response rating (0 to 100), Nutsedge [19, 25]: 20
Plant response rating, Nutsedge [19, 26]: 20
Barnyardgrass plant response rating ([20]; Rate 250 g/ha): 70
Barnyardgrass plant response rating ([20]; Rate 500 g/ha): 100
Plant response rating, Barnyardgrass ([20]; Rate 62 g/ha): 0
Plant response rating, Barnyardgrass ([20]; Rate 125 g/ha): 70
Ducksalad plant response rating ([21]; Rate 250 g/ha): 50
Ducksalad plant response rating ([21]; Rate 500 g/ha): 100
Plant response rating, Ducksalad ([21]; Rate 62 g/ha): 0
Plant response rating, Ducksalad ([21]; Rate 125 g/ha): 50
Flatsedge plant response rating ([22]; Rate 250 g/ha): 100
Flatsedge plant response rating ([22]; Rate 500 g/ha): 100
Plant response rating, Flatsedge ([22]; Rate 62 g/ha): 0
Plant response rating, Flatsedge ([22]; Rate 125 g/ha): 100
